From publication PMC8228849, “Characterization of the Highly Efficient Acid-Stable Xylanase and β-Xylosidase System from the Fungus Byssochlamys spectabilis ATHUM 8891 (Paecilomyces variotii ATHUM 8891)” (Journal of Fungi, 2021)

How the values were obtained:
PvXyd3A = target: T1, PvXyd3A (Paecilomyces variotii, UniProt A0A443HSR8); assay: pNP-X hydrolysis initial rates, Lineweaver-Burk; assay type: biochemical; conditions: competitive; substrate pNP-X; xylose at 5, 20 and 50 mM; methods text misprints the enzyme as Xyn3A
T1 construct: gene C8Q69DRAFT_305813; native secreted enzyme purified from culture supernatant (Brewer's Spent Grain); 78 kDa; pI between 3 and 4; GH3; once misprinted PvXyd11A
T1 sequence (A0A443HSR8 28-800): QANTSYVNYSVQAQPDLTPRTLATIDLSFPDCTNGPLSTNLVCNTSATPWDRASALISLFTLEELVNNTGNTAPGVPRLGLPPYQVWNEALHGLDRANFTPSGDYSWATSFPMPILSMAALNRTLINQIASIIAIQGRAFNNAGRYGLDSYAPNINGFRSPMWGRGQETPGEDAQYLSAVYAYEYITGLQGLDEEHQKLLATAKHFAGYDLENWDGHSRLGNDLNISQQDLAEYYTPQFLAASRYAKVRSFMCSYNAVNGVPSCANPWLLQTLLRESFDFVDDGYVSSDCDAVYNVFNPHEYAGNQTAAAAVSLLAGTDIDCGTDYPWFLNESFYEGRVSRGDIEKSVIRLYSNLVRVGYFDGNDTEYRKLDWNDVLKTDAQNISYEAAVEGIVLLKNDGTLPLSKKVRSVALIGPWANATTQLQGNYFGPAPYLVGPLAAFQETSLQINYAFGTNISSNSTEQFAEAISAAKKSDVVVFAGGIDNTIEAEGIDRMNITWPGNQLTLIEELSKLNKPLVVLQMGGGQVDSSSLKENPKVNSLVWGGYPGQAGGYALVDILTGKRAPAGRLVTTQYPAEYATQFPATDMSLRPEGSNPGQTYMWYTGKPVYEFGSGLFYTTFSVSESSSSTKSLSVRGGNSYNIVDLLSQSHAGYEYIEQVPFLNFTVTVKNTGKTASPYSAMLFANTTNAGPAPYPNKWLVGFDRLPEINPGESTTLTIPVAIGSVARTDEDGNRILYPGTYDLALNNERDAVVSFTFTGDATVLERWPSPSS

purified protein = substrate: O=[N+]([O-])c1ccc(O[C@@H]2OC[C@@H](O)[C@H](O)[C@H]2O)cc1; assay: purified protein; assay type: biochemical, Paecilomyces variotii; conditions: standard assay pH 4 citrate-phosphate, 50 °C, 0.1-20 mM pNP-X, Table 4 prints 0.45 ± 0.06 mM

Molecule: OC1OC[C@@H](O)[C@H](O)[C@H]1O (some centres unmarked) [X1, xylose]
- Ki (PvXyd3A): 10.2 mM

B1: PvXyd3A (Paecilomyces variotii) (protein)
chain: T1 sequence (A0A443HSR8 28-800)
notes: native secreted enzyme purified from culture supernatant (Brewer's Spent Grain); 78 kDa; pI between 3 and 4; GH3; once misprinted PvXyd11A
- Km (purified protein): 480 ± 60 µM
